Reference: ChEMBL document CHEMBL4002577, “Phenylthiazole antibiotics: A metabolism-guided approach to overcome short duration of action” (Eur J Med Chem, 2017)
In brackets after ≈: the same amount, converted by molar mass. Activity calls are given as the source filed them. The calls are words filed in the database; no cut-off is given here.

Key:
Staphylococcus aureus [1] = assay: Antibacterial activity against vancomycin-resistant Staphylococcus aureus VRSA4 clinical isolate after 18 to 20 hrs by broth microdilution method; assay type: functional
Staphylococcus aureus [2] = assay: Bactericidal activity against vancomycin-resistant Staphylococcus aureus VRSA10 clinical isolate after 24 hrs; assay type: functional; settings: VRSA10, 24 h
Staphylococcus aureus [3] = assay: Bactericidal activity against methicillin/ciprofloxacin/gentamicin/clindamycin-resistant Staphylococcus aureus USA200 NRS383 clinical isolate after 24 hrs; assay type: functional; settings: USA200 NRS383, 24 h
Staphylococcus aureus [4] = assay: Potentiation of vancomycin-mediated antibacterial activity against vancomycin-resistant Staphylococcus aureus VRSA10 clinical isolate assessed as vancomycin MIC at 0.5 times MIC preincubated for 30 mins followed by vancomycin addition measured after 20 to 22 hrs (reference value: 512 ug/ml); assay type: functional
Staphylococcus aureus [5] = assay: Antibacterial activity against methicillin/erythromycin/tetracycline-resistant Staphylococcus aureus USA300 NRS384 clinical isolate after 18 to 20 hrs by broth microdilution method; assay type: functional
HaCaT [6] = assay: Cytotoxicity against human HaCaT cells assessed as decrease in cell viability up to 8 ug/ml after 2 hrs by MTS assay; assay type: cell-based
J774 = assay: Cytotoxicity against mouse J774 cells assessed as decrease in cell viability at 8 ug/ml after 2 hrs by MTS assay; assay type: cell-based; settings: j774, 2 h
Staphylococcus aureus [7] = assay: Bactericidal activity against methicillin-resistant Staphylococcus aureus USA400 NRS123 clinical isolate after 24 hrs; assay type: functional; settings: USA400 NRS123, 24 h
Staphylococcus aureus [8] = assay: Potentiation of vancomycin-mediated antibacterial activity against vancomycin-resistant Staphylococcus aureus VRSA4 clinical isolate assessed as reduction in vancomycin MIC at 0.5 times MIC preincubated for 30 mins followed by vancomycin addition measured after 20 to 22 hrs relative to control; assay type: functional
Staphylococcus aureus [9] = assay: Antibacterial activity against methicillin-resistant Staphylococcus aureus 2658 RCMB after 18 to 20 hrs by broth microdilution method; assay type: functional
Staphylococcus aureus [10] = assay: Antibacterial activity against vancomycin-resistant Staphylococcus aureus VRSA10 clinical isolate after 18 to 20 hrs by broth microdilution method; assay type: functional
Staphylococcus aureus [11] = assay: Bactericidal activity against vancomycin-resistant Staphylococcus aureus VRSA4 clinical isolate after 24 hrs; assay type: functional; settings: VRSA4, 24 h
Staphylococcus aureus [12] = assay: Antibacterial activity against methicillin/ciprofloxacin/gentamicin/clindamycin-resistant Staphylococcus aureus USA200 NRS383 clinical isolate after 18 to 20 hrs by broth microdilution method; assay type: functional
Staphylococcus aureus [13] = assay: Antibacterial activity against mupirocin/rifampicin-resistant Staphylococcus aureus RN4220 NRS107 clinical isolate after 18 to 20 hrs by broth microdilution method; assay type: functional
Staphylococcus aureus [14] = assay: Bactericidal activity against mupirocin/rifampicin-resistant Staphylococcus aureus RN4220 NRS107 clinical isolate after 24 hrs; assay type: functional; settings: RN4220 NRS107, 24 h
Staphylococcus aureus [15] = assay: Antibacterial activity against methicillin-resistant Staphylococcus aureus USA400 NRS123 clinical isolate after 18 to 20 hrs by broth microdilution method; assay type: functional
Staphylococcus aureus [16] = assay: Bactericidal activity against methicillin/erythromycin/tetracycline-resistant Staphylococcus aureus USA300 NRS384 clinical isolate after 24 hrs; assay type: functional; settings: USA300 NRS384, 24 h
Staphylococcus aureus [17] = assay: Bactericidal activity against methicillin/ciprofloxacin/clindamycin-resistant Staphylococcus aureus USA100 NRS382 clinical isolate after 24 hrs; assay type: functional; settings: USA100 NRS382, 24 h
Staphylococcus aureus [18] = assay: Antibacterial activity against methicillin/ciprofloxacin/clindamycin-resistant Staphylococcus aureus USA100 NRS382 clinical isolate after 18 to 20 hrs by broth microdilution method; assay type: functional
[19] = Half life in human liver microsomes after 10 to 60 mins in presence of NADPH by LC/MS/MS analysis; assay type: ADME, microsome
[20] = Intrinsic clearance in human liver microsomes after 10 to 60 mins in presence of NADPH by LC/MS/MS analysis; assay type: ADME, microsome; settings: read-out: CLH
[21] = Half life in human liver microsomes after 10 to 60 mins in absence of NADPH by LC/MS/MS analysis; assay type: ADME, microsome
[22] = Intrinsic clearance in human liver microsomes after 10 to 60 mins in absence of NADPH by LC/MS/MS analysis; assay type: ADME, microsome; settings: read-out: CLH
HaCaT [23] = assay: Cytotoxicity against human HaCaT cells assessed as decrease in cell viability up to 16 ug/ml after 2 hrs by MTS assay; assay type: cell-based
Staphylococcus aureus [24] = assay: Bactericidal activity against methicillin-resistant Staphylococcus aureus USA400 NRS123 clinical isolate assessed as reduction of bacterial load at 4 times MIC after 48 hrs by time kill assay; assay type: functional
Staphylococcus aureus [25] = assay: Bactericidal activity against methicillin-resistant Staphylococcus aureus USA400 NRS123 clinical isolate assessed as time required to reduce 4 log10CFU of bacterial load at 4 times MIC by time kill assay; assay type: functional
Staphylococcus aureus [26] = assay: Bactericidal activity against methicillin-resistant Staphylococcus aureus USA400 NRS123 clinical isolate assessed as reduction of bacterial load at 4 times MIC after 24 hrs by time kill assay; assay type: functional
Staphylococcus aureus [27] = assay: Antibacterial activity against methicillin-resistant Staphylococcus aureus USA400 NRS123 clinical isolate infected in mouse J774 cells assessed as reduction of bacterial load at 16 ug/ml after 24 hrs relative to control; assay type: functional

| Structure (SMILES) | MIC (Staphylococcus aureus [1]) | MBC (Staphylococcus aureus [2]) | MBC (Staphylococcus aureus [3]) | MIC (Staphylococcus aureus [5]) | MBC (Staphylococcus aureus [7]) | MIC (Staphylococcus aureus [9]) | MIC (Staphylococcus aureus [10]) | MBC (Staphylococcus aureus [11]) | MIC (Staphylococcus aureus [12]) | MIC (Staphylococcus aureus [13]) | MBC (Staphylococcus aureus [14]) | MIC (Staphylococcus aureus [15]) | MBC (Staphylococcus aureus [16]) | MBC (Staphylococcus aureus [17]) | MIC (Staphylococcus aureus [18]) | also measured |
| --- | --- | --- | --- | --- | --- | --- | --- | --- | --- | --- | --- | --- | --- | --- | --- | --- |
| CCCCCCCOc1ccc(-c2nc(C)c(/C(C)=N/NC(=N)N)s2)cc1 | 2 µg/mL (≈ 5.16 µM) | 2 µg/mL (≈ 5.16 µM) | 1 µg/mL (≈ 2.58 µM) | 2 µg/mL (≈ 5.16 µM) | 4 µg/mL (≈ 10.3 µM) | 0.74 µg/mL (≈ 1.91 µM) | 2 µg/mL (≈ 5.16 µM) | 2 µg/mL (≈ 5.16 µM) | 0.5 µg/mL (≈ 1.29 µM) | 2 µg/mL (≈ 5.16 µM) | 2 µg/mL (≈ 5.16 µM) | 2 µg/mL (≈ 5.16 µM) | 2 µg/mL (≈ 5.16 µM) | 1 µg/mL (≈ 2.58 µM) | 1 µg/mL (≈ 2.58 µM) | MIC (Staphylococcus aureus [4]): > 128 µg/mL; Activity (HaCaT [6]): Non-Toxic; Activity (J774): Toxic; fold change (FC) (Staphylococcus aureus [8]): 4 |
| CCCOc1ccc(-c2nc(C)c(/C(C)=N/NC(=N)N)s2)cc1 |  |  |  |  |  | > 30 µg/mL |  |  |  |  |  |  |  |  |  |  |
| CCCCOc1ccc(-c2nc(C)c(/C(C)=N/NC(=N)N)s2)cc1 |  |  | > 64 µg/mL |  |  | 15.6 µg/mL (≈ 45.2 µM) |  |  | 32 µg/mL (≈ 92.6 µM) |  |  |  |  | > 128 µg/mL | 32 µg/mL (≈ 92.6 µM) | half-life [19]: > 4 h; microsomal CLint [20]: < 9.6 µL/min/mg; half-life [21]: > 4 h; microsomal CLint [22]: < 9.6 µL/min/mg |
| CCC(CC)COc1ccc(-c2nc(C)c(/C(C)=N/NC(=N)N)s2)cc1 |  |  | > 64 µg/mL |  |  | 7.81 µg/mL (≈ 20.9 µM) |  |  | 32 µg/mL (≈ 85.7 µM) |  |  |  |  | 32 µg/mL (≈ 85.7 µM) | 32 µg/mL (≈ 85.7 µM) |  |
| CCCCCCCCOc1ccc(-c2nc(C)c(/C(C)=N/NC(=N)N)s2)cc1 | 4 µg/mL (≈ 9.96 µM) | 4 µg/mL (≈ 9.96 µM) | 2 µg/mL (≈ 4.98 µM) | 4 µg/mL (≈ 9.96 µM) | 8 µg/mL (≈ 19.9 µM) | 15.6 µg/mL (≈ 38.9 µM) | 4 µg/mL (≈ 9.96 µM) | 4 µg/mL (≈ 9.96 µM) | 1 µg/mL (≈ 2.49 µM) | 4 µg/mL (≈ 9.96 µM) | 8 µg/mL (≈ 19.9 µM) | 4 µg/mL (≈ 9.96 µM) | 4 µg/mL (≈ 9.96 µM) | 2 µg/mL (≈ 4.98 µM) | 2 µg/mL (≈ 4.98 µM) | Activity (HaCaT [23]): Non-Toxic; Activity (Staphylococcus aureus [24]): Active; Time (Staphylococcus aureus [25]): <=2 hr |
| CC(=O)CC(c1ccccc1)c1c(O)c2ccccc2oc1=O (stereo not drawn) [WARFARIN] |  |  |  |  |  |  |  |  |  |  |  |  |  |  |  | microsomal CLint [20]: < 9.6 µL/min/mg; microsomal CLint [22]: < 9.6 µL/min/mg |
| C/C(=N\NC(=N)N)c1sc(-c2ccc(OCC3CCC3)cc2)nc1C |  |  |  |  |  | > 30 µg/mL |  |  |  |  |  |  |  |  |  |  |
| CN[C@H](CC(C)C)C(=O)N[C@H]1C(=O)N[C@@H](CC(N)=O)C(=O)N[C@H]2C(=O)N[C@H]3C(=O)N[C@H](C(=O)N[C@H](C(=O)O)c4cc(O)cc(O)c4-c4cc3ccc4O)[C@H](O)c3ccc(c(Cl)c3)Oc3cc2cc(c3O[C@@H]2O[C@H](CO)[C@@H](O)[C@H](O)[C@H]2O[C@H]2C[C@](C)(N)[C@H](O)[C@H](C)O2)Oc2ccc(cc2Cl)[C@H]1O [VANCOMYCIN] | > 512 µg/mL | > 512 µg/mL | 0.5 µg/mL (≈ 0.345 µM) |  | 0.5 µg/mL (≈ 0.345 µM) | 1.95 µg/mL (≈ 1.35 µM) | > 512 µg/mL | > 512 µg/mL |  |  | 1 µg/mL (≈ 0.69 µM) |  | 1 µg/mL (≈ 0.69 µM) | < 1 µg/mL | < 1 µg/mL | Activity (Staphylococcus aureus [26]): Active; Activity (Staphylococcus aureus [27]): inactive |
| C/C(=N\NC(=N)N)c1sc(-c2ccc(OCCC(C)C)cc2)nc1C | 16 µg/mL (≈ 44.5 µM) | 32 µg/mL (≈ 89 µM) | 16 µg/mL (≈ 44.5 µM) | 16 µg/mL (≈ 44.5 µM) | > 32 µg/mL | 7.81 µg/mL (≈ 21.7 µM) | 16 µg/mL (≈ 44.5 µM) | 32 µg/mL (≈ 89 µM) | 8 µg/mL (≈ 22.3 µM) | 16 µg/mL (≈ 44.5 µM) | 16 µg/mL (≈ 44.5 µM) | 16 µg/mL (≈ 44.5 µM) | 32 µg/mL (≈ 89 µM) | 8 µg/mL (≈ 22.3 µM) | 8 µg/mL (≈ 22.3 µM) |  |
